Experimental findings from patent US20210220241A1, “Body Sculpting” (Sculpt B.V., priority 2014, published 2021) are described below.

Where two headings read alike, the source gives them in different places.

The nature of data set [1]: Skin and fat penetration assay, cubes of human fat with skin (Example 8). It counts as in vitro ADME. Here is the method:
Cubes of human fat (5×5×5 cm) with skin attached from obese female subjects that underwent esthetic surgery was dissected at 4° C. Cubes were transferred to containers so the skin would overlay the rim of the container. 0.25 ml of hydrogels comprising 2.75 mg/ml free octopamine, 5 mg/ml octopamine decanoate or 3.98 mg/ml octopamine pentanoate were applied once and left to penetrate for 20 hrs. Cubes were subsequently frozen at −80° C.
Upon defrosting, skin was carefully removed taking care not to contaminate the underlying fat. The fat was dissected to yield a column of 1×1 cm of fat that was directly under the site of application. The column was sliced to yield 0.5 cm thick slices covering 0-2cm fat depth under the site of application. Tissue was sonicated in 5 ml PBS (5 mM glucose), samples were spun down (13000 rpm for 30 min at 4° C.). Clear supernatant was removed with an injection needle and syringe and frozen until analysis. Analysis of octopamine was performed as described in Example 7.

A short description of data set [2]: Plasma levels of octopamine in human volunteers (Example 10). In kind it is in vivo. As for the experimental part:
After thorough washing of hands, blood was sampled using […]. Blood (40 microliter) was sampled using a capillary that protruded the cap of the vial and spun down into 300 microliter vials containing 10 microliter of heparin 20 IE/ml. Plasma was pipetted off and transferred to 300 microliter vials and stored at -20° C. until analysis. Octopamine was analyzed as described in Example 7. […] FIG. 17b), and of octopamine pentanoate (3.98 mg/ml, 2.5 ml, once daily); FIG. 17c). Experiments are an average of one or two experiments (n=1-2).

In data set [3] the test system is human fat suspension. Briefly: In vitro assay of glycerol production in human fat (Example 3). In kind it is cell-based. As to conditions: 2 hours at 37 degrees Celsius. As for the experimental part:
Human fat tissue was pottered using a teflon potter in 10 ml PBS with 6 mM Glucose (2.4 gram fat tissue per 10 ml). The suspension was transferred to a 50 ml beaker and was gently stirred at 37 degrees Celsius to maintain the homogeneous nature. 0.3 ml suspension was transferred to 2 ml reaction vials, spiked with octopamine (end concentration 1 microM) and octopamine decanoate (end concentration 10 microM and PBS/glucose were added until 2 ml end volume. Vials were incubated at 37 degrees Celsius for 2 hours.
Samples were spun off at 4000 rpm for 2 min and 10 microliter samples were taken after removal of floating fat with a tissue.
Samples were analyzed using an enzymatic kit (Sigma Aldrich) and fluorescence intensity was measured using direct flow injection (Vici valve in combination with Shimadzu 10 ADvp HPLC pump at 0.15 ml/min, thermo 15*2.1 C18 column prior to valve and using ultrapure water as mobile phase) of 20 microliter into a HPLC fluorescence detector (Shimadzu RF 10Ax1). Calibration was performed by preparation of calibration samples 2-1000 microM.

Data set [4] has as its system human volunteers. Briefly: Application on human volunteers: waistline and skinfold (Example 10). It counts as in vivo. As to conditions: for Decrease of waistline: same molar concentration. Here is the method: For abdominal/hip experiments 2 male volunteers […] (BMI 25.5 and 28 resp.) monitored belly circumference, and skinfold at belly and hip on a daily basis (8 am mornings). Blood pressure and body weight was monitored daily. […] Hydrogel was applied daily or twice daily as indicated using a 5 ml syringe to measure volume. For abdominal experiments, the indicated volume of hydrogel was applied on the belly around the belly button in a radius of 10 cm. The same volume was applied for hip areas. For leg experiments, 2.5 ml was applied on each leg. Skinfold was assessed by measuring thickness of skin at hips and belly 4 cm from belly button using a skinfold measuring device ([…]-120). […] Experiments are the average of two experiments (n=2). […] Experiments are an average of 2 or 3 runs (n=2-3).

A short description of data set [5]: Stability / hydrolysis in PBS at 37 degrees (Example 6). In kind it is physicochemical. As to conditions: for Hydrolysis in PBS compared with plasma or fat tissue: PBS at 37 degrees. As for the experimental part: Samples were analyzed using HPLC UV.
The nature of data set [6]: Skin penetration chamber, human skin (Example 7). In kind it is in vitro ADME. As to conditions: 0.25 ml hydrogel 2.75 mg/ml, human skin 6.25 cm^2, 2 hours. As for the experimental part:
The chamber was thermostated at 37° C. Samples were drawn from the PBS pottered tissue with a 1 ml syringe and analyzed using LC-mass spectrometry. Given the full conversion, this assay evaluates the total penetration of octopamine prodrug through skin based on equal amounts of octopamine, and compares this to the penetration of an equal amount of octopamine itself. Samples were analyzed using HPLC masspectrometry. A Shimadzu HPLC (LC20AD pump and […] injector) was used in conjunction with a sciex API 4000 Masspectrometer. The HPLC column was a Phenomenex, Synergi Max (BOL-P-RP2.5-036), 3.0×100mm, […], thermostated at 35° C. The mobile phase consisted of Eluent A: 0.1% formic acid (“FA”) in ultrapure water (“UP”) and Eluent B: 70% acetonitrile (“ACN”) +0.1% FA at a total flow of 0.3 ml/min. […] UP/ACN/FA =50/50/0.1. […] Gradients were maintained at 100% B for 0.5 minute. […] Samples were centrifugated for 5 mins at 13000 rpm and 14 μL 0.1% FA in UP was added to 6 μL supernatant and vortexed for 10 sec. The autoinjector was programmed to add 20 μl 0.5 mg/ml […] reagent (online) and inject 35 μl. The […] reagent was prepared by dissolving 5 mg […] in 4.5 ml UP, 5 ml 0.25 M NaHCO3, 0.5 ml methanol (“MeOH”) and 20 microliter 2-mercapto-ethanol.

Data set [7] relates to human volunteers. Briefly: Blood pressure, heart rate and side effects in human volunteers (Example 10). As to conditions: humans; for Side effects: topical hydrogel treatment regimes.
For data set [8], the system named is Male wistar rats. Briefly: In vivo effect of hydrogel treatment on waist, weight and plasma glycerol of rats (Example 5). Details: species or system rat. As for the experimental part:
Male wistar rats (approx. 500 g) were weight daily and waistline was measured. Animals were shaven once weekly at least 12 hours before next treatment to ensure wound healing.
Animals were first treated for 1 month with carbomer hydrogel not containing prodrugs (twice daily abdominal application 3 by 3 cm) , after which animals were treated with 0.5 ml carbomer hydrogel containing 5 mg/ml octopamine decanoate (application concentration 0.277 mg/cm^2). Tail vena blood draws (100 microliter plasma, 5 microliter heparine 500 IE per 100 microliter blood) were taken on the day −8, 21, 36 (start of compound treatment), 51 and 58. Blood was spun off (10 min 14 KRPM) and plasma was stored at −80.
Blood samples were analyzed for glycerol using an enzymatic kit (Sigma Aldrich) and fluorescence intensity was measured using direct flow injection (Vici valve in combination with shimadzu 10 ADvp hplc pump at 0.15 ml/min, thermo 15*2.1 C18 column prior to valve and using ultrapure water as mobile phase) of 20 microliter into a HPLC fluorescence detector (Shimadzu RF 10Axl). Calibration was performed by preparation of calibration samples 2-1000 microM.

For data set [9] the following is noted: female, human, 15 min, 10 microM.
Description: Human belly adipose tissue was obtained from obese female subjects that underwent esthetic surgery. Tissue was pottered (Potter RW 19 Nr 29795 of Janke & Kunkel KG) in PBS solution (Irvine Scientific) with 5 mM D(+)-glucose monohydrate at 530 rpm using a Teflon potter tip.
Tissue suspension (1, 7.5, 25 or 240 mg fat/ml PBS, or plasma) was stirred and 1.98 ml aliquots were transferred to polypropylene 2 ml screwcap vials (Sarstedt). […] When inhibition of lipase was studied, propranolol or orlistat were added 5 minutes before addition of the prodrug esters (FIG. 10).
15 minutes after addition of the prodrug, lipolysis was stopped by adding 20 microliter of 1.8% HCl. Samples were spun down (13000 rpm for 3 min at 4° C.) and supernatants were stored at −18° C. for analysis.
Samples were analyzed using HPLC UV. A Gilson 234 auto-injector and Shimadzu hplc pump (10 AdVP) was used in conjunction with a shimadzu UV (10AVp) set at 270 nm. Samples were separated using a reversed phase HPLC column (Thermo BDS Hypersil C18 150 mm×2.1 mm, 3 micrometer). The mobile phase consisted of 1.6 g KH2PO4, 110 mg sodium 1-heptane sulfonate, 1 1 ultrapure water, 15 mL methanol and 1 ml acetic acid at a flowrate of 0.175 ml/min.
Data set [10] is described as follows: In vitro ester hydrolysis assay, control in PBS without tissue (spontaneous hydrolysis). It counts as physicochemical. As to conditions: 30 degrees. Here is the method:
(§1) Octopamine released was measured using a 50 ml beaker thermostated at 30 degrees. 30 ml PBS (stirred) was pumped at 1 ml/min (Gilson minipulse 3) through a UV detector (SPD-10Avp Shimadzu UV/VIS) set at 280 nm and 2.56 AUFS. The outlet was recirculated back to the beaker. UV signal was recorder on a flatbed recorder (Kipp), set at 1 mm/min and 1 mV gain.
(§2) Octopamine and octopamine decanoate solutions (1 mM) were made in ultrapure water adding 1 microliter/ml of 1.8% hydrochloride acid. Octopamine decanoate was sonicated for 30 min at 30 degrees.
(§3) Upon stabilization of the UV detector on PBS, 1 ml of tissue suspension was added to the PBS. Upon stabilization of the UV signal, 5 ml of 1 mM of octopamine decanoate was added. Control experiments were performed without addition of tissue suspension in order to monitor spontaneous hydrolysis of decanoate ester in PBS.

The nature of data set [11]: In vitro ester hydrolysis assay in PBS/human fat suspension. It counts as in vitro ADME. As to conditions: PBS/human fat tissue at concentrations three times higher than rat tissue, in 110 min. Here is the method:
Abdominal fat tissue was harvested from male wistar rats (400 g, Harlan Zeist) and stored at −80° C. until use. Human fat tissue was obtained from esthetic surgery and stored at −80° C. until use. Tissue was thuraxed (80 mg/ml for rat tissue and 240 mg/ml for human tissue) for 1 min in Phosphate buffered saline (PBS (Irvine Scientific).
as §1, §2, §3

The subject of data set [12] is human subject. Briefly: Removal of cellulite on a human subject (Example 11). It counts as in vivo. As to conditions: hydrogel 3.98 mg/ml, 5 ml once daily, area with moderate cellulite, after three days. Here is the method: A hydrogel comprising 3.98 mg/ml octopamine pentanoate (5 ml) was applied once daily on a human subject in an area with moderate cellulite.

Where [13] appears, read: 0.25 ml hydrogel applied once, 20 hrs.
Where [14] appears, read: humans, 2.5 ml or 5 ml hydrogel.
[15] abbreviates: humans n=2, hydrogel on belly and hips, 2.5 ml once daily or 5 ml twice daily, after 16 days.
Where [16] appears, read: hydrogel 5 mg/ml, 5 ml twice daily on belly and hips.

Regarding p-Octopamine [reference compound], in data set [1] (setting [13]), the “Penetration through skin and fat tissue” value was “penetrate through both skin and fat tissue”. Moreover, the “Plasma levels of free octopamine upon administration of hydrogel” value in data set [2] (setting [14]) is given as “acceptable systemic concentrations”. In addition, the “Glycerol production (levels)” value in [3] (end concentration 1 microM, P=0.10) was “increased”. The Decrease of waistline result is listed as “without effect” in [4] (setting [15]); “without effect” in [4] (single individual, hydrogel on belly and hips, after 21 days). Besides, the “Stability in PBS” value in [5] is reported as “stable”. The “Penetration of octopamine through skin” value in data set [6] is recorded as “minor penetration”.
As for `CCCCCCCCCC(=O)Oc1ccc(C(O)CN)cc1` (centres unmarked) [octopamine decanoate, 4-(2-amino-1-hydroxyethyl)phenyl decanoate], in data set [1], the “Penetration through skin and fat tissue” value was “penetrate through both skin and fat tissue”. In data set [7] (setting [16]), the “Blood pressure (systole and diastole)” value is on record as “remained normal”; the Heart rate result was “remained normal”. Further, in data set [7], the Side effects result is reported as “No side effects were reported”. Moreover, the Animal weights entry in [8] (0.5 ml hydrogel 5 mg/ml twice daily abdominal) is “remained inclining according to their growth curve”. Also, in data set [8] (0.5 ml hydrogel 5 mg/ml twice daily abdominal, after 3 weeks of treatment), the Reduction of waistline entry was “about 10%”. For the same compound, the Plasma glycerol levels entry in data set [8] (after 15 days of treatment, P=0.101) is “increased”. Besides, the Plasma glycerol levels entry in data set [8] (after 22 days of treatment, P=0.024) is given as “reaching significance”. Further, the “Base level of hydrolysis in fat suspension” value in [9] is listed as 40-45%. In addition, in data set [2] (human, in vivo), the “Plasma levels of free octopamine upon administration of hydrogel” value was “did not result in unacceptable plasma levels”. Further, the “Glycerol production (levels)” value in data set [3] (end concentration 10 microM, P=0.047) is “reached significance”. In [4] (setting [15]), the Decrease of waistline result is recorded as “about 4%”. Moreover, the “Reduction of skinfold (belly and hip)” value in data set [4] (hydrogel 5 mg/ml, 5 ml twice daily, in 20 days) is 10-20%. For the same compound, the “Spontaneous hydrolysis into octopamine, rate” value in data set [10] is on record as 10 % per 110 min. Besides, the “Hydrolysis in PBS compared with plasma or fat tissue” value in data set [5] was “much lower rate”. In addition, the Conversion by hydrolysis result in data set [11] is listed as “over 40%”.
On to `CCCCC(=O)Oc1ccc(C(O)CN)cc1.Cl` (centres unmarked) [octopamine pentanoate, 4-(2-amino-1-hydroxyethyl)phenyl valeroate hydrochloride], for which, in data set [1] (setting [13]), the “Concentrations of free octopamine in fat layers (0-2 cm depth) compared with hydrogel comprising octopamine” value is given as “higher concentrations”; the “Penetration through skin and fat tissue” value is “penetrate through both skin and fat tissue”. In [7], the Side effects entry is given as “no side effects were reported”. The “Plasma levels of free octopamine upon administration of hydrogel” value in [2] (setting [14]) was “did not result in unacceptable plasma levels”. Moreover, in data set [5], the “Hydrolysis in PBS compared with plasma or fat tissue” value is given as “much lower rate”. Besides, in data set [12], the Cellulite entry is listed as “noticeably decreased”.
